Results from patent publication US8975275B2, “Use of chemotherapeutic agents” (priority 1999, dated 2015).
Where a name gives a salt, the structure may show the parent alone.

Key:
Format in all cases: in vivo, human
dentin wounds = experiment: Prophylaxis of dentin wounds (patient cases)
Text: For this reason, after removal of the carious regions, the compounds of formula (I) or formula (II) are applied to the prepared cavities and rubbed in. Said compounds are applied in the form of solutions, gels or suspensions to form a local depot with an antibiotic action before the reliner is placed on and/or in the fundament of the inlays, onlays, crowns or bridges. […] A further advantage is that the tubule structure is not modified or denatured here, as is frequently the case with the current procedures using dentin protecting agents and impregnating agents. The microbe-free conditions achieved in this way have a permanent beneficial effect on prosthetic procedures since dentin hypersensitivities and subsequently secondary caries are effectively avoided.
The application of the compounds of formula (I) or formula (II) can either replace or complement the disinfecting treatment with hydrogen peroxide. The compounds of formula (I) or formula (II) can be applied in dissolved form or as a gel, optionally in the presence of solubilizers to promote a deep penetration of the chemotherapeutic agents into the dentinal tubules. Gels are used in the provisional care of dentin wounds and solutions are preferably used before the definitive fixing of e.g. crowns and bridges. The solutions or gels of the chemotherapeutic agents used are applied to the prepared dentin surfaces and gently rubbed in. Residues are then removed, for example with a cotton wool swab or air jet. Inlays, onlays, crowns or bridges can then be fixed. The compounds of formula (I) or formula (II) can be used in concentrations of 0.005 mg/ml to 200 mg/ml. Preferred concentrations are those ranging from 0.5 mg/ml to 150 mg/ml and particularly preferred concentrations are those ranging from 10 to 100 mg/ml.

periodontal diseases = experiment: Topical treatment of periodontal diseases (patient cases)
Text: To do this, threads or so-called chips impregnated with solutions or gelatinous preparations of the compounds of formula (I) or formula (II) are inserted in the gingival pocket. A possible alternative is to use medicament carriers in the form of trays covering the teeth and gingiva. Before they are applied, the gelatinous applications of the compounds of formula (I) or formula (II) are instilled into the gingival pockets. In addition, the gel containing the compounds of formula (I) or formula (II) can also be placed in the medicament carrier. This use of medicament carriers is advantageous because the treatment time can be reduced by the rapid onset of action to about 15 to 30 minutes, so the treatment can be carried out directly in the surgery. The compounds of formula (I) or formula (II) can be used in concentrations of 0.005 mg/ml to 200 mg/ml. Preferred concentrations are those ranging from 0.5 mg/ml to 200 mg/ml and particularly preferred concentrations are those ranging from 10 to 150 mg/ml. Periodontal diseases can also be treated by administering the compounds of formula (I) or formula (II) by intraligamental injection, it being possible to use concentrations ranging from 0.005 mg/ml to 200 mg/ml, preferably from 0.5 mg/ml to 200 mg/ml. For the antibiotics commonly used nowadays, such as tetracyclines, an intraligamental injection is not reasonable since these compounds with a predominantly bacteriostatic action are quickly washed out due to the rapid fluid exchange in the periodontal interstice, and cannot develop their action. Tetra-cyclines can therefore only develop their effects via depot formulations. By contrast, the compounds of formula (I) or formula (II) have a very rapid and also bactericidal action, so their residence time in the periodontal interstice is sufficient to destroy the microbes.

[1] = system: pulpitis due to carious diseases; experiment: Topical treatment of pulpitis due to carious diseases (patient cases)
Text: This is of great importance because, for example in the case of caries profunda, it is always necessary to decide whether softened residual dentin can be left over the pulp. By virtue of complete elimination of the microbes present, there is now a novel method of treatment wherein a thin softened dentin covering can be left if the compounds of formula (I) or formula (II) are used. This method of treatment makes it possible to free infected dentin layers of microbes and to stop pulp infections. This means that pain reactions are eliminated and pulp infections are to a certain extent cured. The pulp remains vital. The topical application of the compounds of formula (I) or formula (II) followed the removal of the carious dentin. The compounds of formula (I) or formula (II) were applied for example in aqueous solution, in a form of gelatinous consistency or on an inert carrier, for example by means of a cotton wool plug. The overlying cavity was occluded with a cement to seal the margins. The cotton wool plug was left in the cavity for three to six days. The compounds of formula (I) or formula (II) can be used in concentrations of 0.005 mg/ml to 200 mg/ml, Preferred concentrations are those ranging from 0.5 mg/ml to 150 mg/ml and particularly preferred concentrations are those ranging from 10 to 100 mg/ml.

## COc1c(N2C[C@@H]3CCCN[C@@H]3C2)c(F)cc2c(=O)c(C(=O)O)cn(C3CC3)c12 [moxifloxacin hydrochloride, 1-cyclopropyl-6-fluoro-1,4-dihydro-8-methoxy-7-[(4aS,7aS)-octahydro-6H-pyrrolo[3,4-b]pyridin-6-yl]-4-oxo-3-quinolinecarboxylic acid]
Dentin wounds; Patient A 2.1, teeth 33 and 36 prepared for bridge, solution 25 mg/ml to cavity, check-up after 3 weeks
  clinical finding at check-up: patient symptom-free
Dentin wounds; Patient A 2.2, solution 50 mg/ml, after final filling, check-up after 4 weeks
  clinical finding at check-up: teeth vital, patient symptom-free
Dentin wounds; Patient A 2.2, teeth 22, 23, 24, smear with solution 50 mg/ml, check-up after 2 weeks
  clinical finding at check-up: teeth symptom-free
Dentin wounds; Patient A 2.3, teeth 14-17 cervical erosions, smear with solution 50 mg/m, check-up after 3 weeks
  clinical finding at check-up: patient symptom-free
Dentin wounds; Patient A 2.4, teeth 11, 12, 21, 22 prepared for crowns, smear with solution 25 mg/ml, check-up after 3 weeks
  clinical finding at check-up: patient symptom-free
Dentin wounds; Patient A 2.5, tooth 44, smear with solution 25 mg/ml, check-up after 9 days
  clinical finding at check-up: patient symptom-free
Periodontal diseases; Patient B 1, teeth 26 and 27 marginal periodontitis, thread insert gel 50 mgn/ml, check-up after 3 days
  clinical finding at check-up: patient symptom-free, gingival regions and pockets inflammation-free
Periodontal diseases; Patient B 2, teeth 14 to 18 severe marginal periodontitis, thread insert gel 50 mg/ml, check-up after 4 days
  clinical finding at check-up: patient symptom-free, gingival regions and pockets inflammation-free
Periodontal diseases; Patient B 3, teeth 24 to 28 marginal periodontitis, thread insert 50 mg/ml, check-up after 5 days
  clinical finding at check-up: patient symptom-free, gingival regions and pockets inflammation-free
Periodontal diseases; Patient B 4, marginal periodontitis entire upper and lower jaw, medicinal splint gel 0.25 mg/ml 10 minutes/day for 4 days, check-up after 3 days
  clinical finding at check-up: patient symptom-free, no more inflammatory phenomena present
Periodontal diseases; Patient B 5, tooth 37 marginal periodontitis, thread insert gel 50 mg/ml, check-up after 8 days
  clinical finding at check-up: patient symptom-free, gingival regions and pockets inflammation-free
Periodontal diseases; Patient B 6, teeth 25-28 severe marginal periodontitis, thread insert gel 50 mg/ml + intraligamental injection 50 mg/ml, check-up after 10 days
  clinical finding at check-up: patient symptom-free, gingival regions and pockets inflammation-free
[1]; Patient A 1.1, gel 25 mg/ml, after final filling, check-up after 3 weeks
  clinical finding at check-up: tooth vital, patient symptom-free
[1]; Patient A 1.10, teeth 16, 17, 27, 36, 37, 46 occlusal caries, pellet inserts gel 50 mg/ml, check-up after 14 days
  clinical finding at check-up: patient symptom-free, teeth vital
[1]; Patient A 1.1, tooth 24 carious defect, pellet insert gel 25 mg/ml, check-up after 4 days
  clinical finding at check-up: patient was symptom-free
[1]; Patient A 1.2, gel 50 mg/ml, after final filling, check-up after 14 days
  clinical finding at check-up: teeth vital, patient symptom-free
[1]; Patient A 1.2, teeth 11, 13 carious defects, pellet inserts gel 50 mg/ml, check-up after 1 week
  clinical finding at check-up: teeth 11 and 13 symptom-free
[1]; Patient A 1.3, gel 25 mg/ml, repetition of insert, check-up after 3 days
  clinical finding at check-up: tooth vital, patient symptom-free
[1]; Patient A 1.3, tooth 24 carious defect, pellet insert gel 25 mg/ml, check-up after one week
  clinical finding at check-up: still slight discomfort of unknown origin
[1]; Patient A 1.4, major mesial carious defect, night pain, pellet inserts gel 50 mg/ml, check-up after 7 days
  clinical finding at check-up: patient symptom-free, tooth vital
[1]; Patient A 1.5, tooth 13 weakly vital, night pain, pellet insert gel 50 mg/ml, check-up after 4 days
  clinical finding at check-up: patient symptom-free, tooth vital
[1]; Patient A 1.6, gel 50 mg/ml, repetition of insert, check-up after 7 days
  clinical finding at check-up: patient symptom-free, tooth vital
[1]; Patient A 1.6, tooth 36 reduced vitality, pellet insert gel 50 mg/ml, check-up after 6 days
  clinical finding at check-up: still slight sensitivity to heat and cold
[1]; Patient A 1.7, tooth 44 reduced vitality, pellet inserts gel 50 mg/ml, check-up after 4 days
  clinical finding at check-up: patient symptom-free
[1]; Patient A 1.8, tooth 36 reduced vitality, pellet insert gel 50 mg/ml, check-up after 3 weeks
  clinical finding at check-up: patient symptom-free, tooth vital
[1]; Patient A 1.9, tooth 27, pellet insert gel 25 mg/ml, check-up after 7 days
  clinical finding at check-up: patient symptom-free, tooth vital
